Patent US20230295119A1, “SUBSTITUTED PYRIDINES FOR THE TREATMENT OF INFLAMMATORY DISEASES” (GOSSAMER BIO SERVICES, INC., priority 2020, published 2023)

Legend:
human JAK3 = human JAK3 (Homo sapiens (Human), UniProt P52333); experiment: JAK3 TR-FRET kinase assay; assay type: biochemical; details: JAK3 0.0125 nM
TYK2 JH2 domain = TYK2 JH2 domain (Homo sapiens (Human), UniProt P29597); experiment: TYK2 JH2 NanoBRET assay; assay type: binding; details: Table 20, read-out: TYK2 IC50
Method: HEK293T cells were transfected with NanoLuc-TYK2 JH2 Fusion Vector (Promega, customized) using Trans-IT reagent (Mirus, #MIR2700) and incubated for overnight in 37° C. incubator. […] Add 85 µL of cell suspension into white, polypropylene, 96-well plates (Corning, #3600). 90 µL of cells were used for no tracer control samples. 5 µL of diluted NanoBRET K10 tracer (Promega, #CS1810C122) were added to cells to a final concentration of 0.5 µM. Test compounds were diluted into DMSO, and then phenol-free opti-MEM to 10X of final concentration. 10 µL of diluted compounds were added into each well. The cells were incubated with test compound and tracer for 2 hours. 3XNanoBRET® Nano-Glo® Substrate and Extracellular NanoLuc® Inhibitor mixture were prepared and 50 µL of the mixture were added into the wells and mixed. […] NanoBRET signal was determined by using the ratio of acceptor signal and donor signal.

human JAK1 = human JAK1 (Homo sapiens (Human), UniProt P23458); experiment: JAK1 TR-FRET kinase assay; assay type: biochemical; details: TR-FRET, JAK1 2.5 nM
human JAK2 = human JAK2 (Homo sapiens (Human), UniProt O60674); experiment: JAK2 TR-FRET kinase assay; assay type: biochemical; details: JAK2 0.025 nM
Chain of human JAK2 (O60674 whole entry): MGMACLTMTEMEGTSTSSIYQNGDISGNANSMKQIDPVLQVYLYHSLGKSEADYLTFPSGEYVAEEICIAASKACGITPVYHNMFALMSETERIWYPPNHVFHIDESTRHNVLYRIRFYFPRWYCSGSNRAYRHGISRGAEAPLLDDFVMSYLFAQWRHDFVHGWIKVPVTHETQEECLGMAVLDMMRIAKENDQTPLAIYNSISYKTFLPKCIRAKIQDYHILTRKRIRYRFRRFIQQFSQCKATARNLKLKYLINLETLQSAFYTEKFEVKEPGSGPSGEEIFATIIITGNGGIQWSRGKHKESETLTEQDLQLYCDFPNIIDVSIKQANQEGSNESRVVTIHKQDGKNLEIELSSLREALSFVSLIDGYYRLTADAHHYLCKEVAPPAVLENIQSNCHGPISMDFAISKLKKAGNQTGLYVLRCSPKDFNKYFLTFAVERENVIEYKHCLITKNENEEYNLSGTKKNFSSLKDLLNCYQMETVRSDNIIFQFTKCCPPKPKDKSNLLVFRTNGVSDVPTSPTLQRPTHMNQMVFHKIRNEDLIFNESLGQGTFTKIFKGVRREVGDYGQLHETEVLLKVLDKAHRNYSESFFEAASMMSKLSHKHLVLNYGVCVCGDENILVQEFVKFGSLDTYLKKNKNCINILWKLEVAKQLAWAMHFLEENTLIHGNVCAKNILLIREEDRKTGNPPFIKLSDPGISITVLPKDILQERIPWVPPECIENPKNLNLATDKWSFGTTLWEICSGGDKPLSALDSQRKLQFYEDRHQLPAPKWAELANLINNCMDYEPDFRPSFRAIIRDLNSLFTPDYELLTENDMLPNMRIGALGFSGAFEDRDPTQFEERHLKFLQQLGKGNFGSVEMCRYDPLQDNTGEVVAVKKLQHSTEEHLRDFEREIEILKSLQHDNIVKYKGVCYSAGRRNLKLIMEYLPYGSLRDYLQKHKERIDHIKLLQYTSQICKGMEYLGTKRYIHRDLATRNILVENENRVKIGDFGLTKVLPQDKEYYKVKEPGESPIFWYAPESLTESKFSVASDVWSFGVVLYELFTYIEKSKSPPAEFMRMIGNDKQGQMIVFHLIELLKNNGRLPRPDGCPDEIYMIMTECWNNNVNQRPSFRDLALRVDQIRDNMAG

Chain of human JAK1 (P23458 whole entry): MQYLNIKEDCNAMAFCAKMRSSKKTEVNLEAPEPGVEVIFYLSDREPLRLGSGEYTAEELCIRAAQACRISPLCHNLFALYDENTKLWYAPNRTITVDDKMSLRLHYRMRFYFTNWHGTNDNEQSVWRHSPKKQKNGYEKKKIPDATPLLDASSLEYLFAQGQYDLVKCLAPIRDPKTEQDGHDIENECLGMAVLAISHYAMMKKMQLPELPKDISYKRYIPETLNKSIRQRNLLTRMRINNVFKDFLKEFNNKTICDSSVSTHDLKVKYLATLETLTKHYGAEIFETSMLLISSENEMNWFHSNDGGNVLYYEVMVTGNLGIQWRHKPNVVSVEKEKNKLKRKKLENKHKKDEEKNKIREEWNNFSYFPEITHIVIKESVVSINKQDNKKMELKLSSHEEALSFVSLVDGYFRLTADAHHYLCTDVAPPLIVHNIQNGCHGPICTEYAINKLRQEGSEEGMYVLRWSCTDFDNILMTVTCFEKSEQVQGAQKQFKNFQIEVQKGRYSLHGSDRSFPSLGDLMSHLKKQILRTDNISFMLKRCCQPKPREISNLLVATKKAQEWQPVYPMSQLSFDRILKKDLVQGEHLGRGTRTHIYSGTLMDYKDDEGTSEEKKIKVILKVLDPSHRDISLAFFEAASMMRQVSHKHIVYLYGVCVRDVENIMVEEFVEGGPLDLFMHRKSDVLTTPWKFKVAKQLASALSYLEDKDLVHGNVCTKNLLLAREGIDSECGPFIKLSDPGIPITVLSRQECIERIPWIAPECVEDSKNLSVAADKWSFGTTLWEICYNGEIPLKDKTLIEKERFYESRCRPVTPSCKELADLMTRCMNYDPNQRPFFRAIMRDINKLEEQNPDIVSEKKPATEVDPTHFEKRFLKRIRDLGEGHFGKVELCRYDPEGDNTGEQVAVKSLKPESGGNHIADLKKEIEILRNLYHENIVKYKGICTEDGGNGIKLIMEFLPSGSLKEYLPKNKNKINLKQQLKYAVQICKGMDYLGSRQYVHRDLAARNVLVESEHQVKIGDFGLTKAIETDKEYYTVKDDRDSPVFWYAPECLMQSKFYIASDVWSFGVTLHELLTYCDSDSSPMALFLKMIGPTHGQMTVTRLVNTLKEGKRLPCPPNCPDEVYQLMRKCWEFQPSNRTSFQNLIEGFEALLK
Chain of human JAK3 (P52333 whole entry, the tested form may be a part): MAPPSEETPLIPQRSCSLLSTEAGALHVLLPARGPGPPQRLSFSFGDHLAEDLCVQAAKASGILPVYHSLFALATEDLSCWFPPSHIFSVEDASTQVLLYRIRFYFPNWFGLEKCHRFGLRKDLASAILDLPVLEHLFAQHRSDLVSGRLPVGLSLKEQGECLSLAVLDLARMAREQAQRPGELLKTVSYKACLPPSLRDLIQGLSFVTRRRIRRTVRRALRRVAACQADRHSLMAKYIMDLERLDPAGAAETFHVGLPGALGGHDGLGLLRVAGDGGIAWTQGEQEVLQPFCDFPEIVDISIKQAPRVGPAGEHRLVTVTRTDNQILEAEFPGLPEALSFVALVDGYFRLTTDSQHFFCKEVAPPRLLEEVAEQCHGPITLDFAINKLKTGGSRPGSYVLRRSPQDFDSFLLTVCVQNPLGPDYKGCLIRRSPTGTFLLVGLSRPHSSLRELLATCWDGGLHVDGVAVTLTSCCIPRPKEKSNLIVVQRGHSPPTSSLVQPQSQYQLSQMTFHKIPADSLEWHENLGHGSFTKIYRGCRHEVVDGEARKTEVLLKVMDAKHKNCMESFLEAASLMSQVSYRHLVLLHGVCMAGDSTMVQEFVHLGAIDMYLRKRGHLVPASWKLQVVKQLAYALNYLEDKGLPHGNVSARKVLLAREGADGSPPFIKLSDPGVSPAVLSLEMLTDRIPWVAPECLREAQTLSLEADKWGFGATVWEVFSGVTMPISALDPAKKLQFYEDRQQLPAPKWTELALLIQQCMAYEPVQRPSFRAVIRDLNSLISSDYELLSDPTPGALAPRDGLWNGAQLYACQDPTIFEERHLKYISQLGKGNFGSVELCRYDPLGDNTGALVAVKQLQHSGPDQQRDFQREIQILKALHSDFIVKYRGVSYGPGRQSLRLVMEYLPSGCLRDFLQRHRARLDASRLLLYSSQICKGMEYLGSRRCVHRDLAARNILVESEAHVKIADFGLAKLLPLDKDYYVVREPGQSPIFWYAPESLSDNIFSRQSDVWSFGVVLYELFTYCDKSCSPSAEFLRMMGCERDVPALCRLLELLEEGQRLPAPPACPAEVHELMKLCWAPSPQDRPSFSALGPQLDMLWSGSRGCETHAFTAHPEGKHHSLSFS
Chain of TYK2 JH2 domain (P29597 589-875): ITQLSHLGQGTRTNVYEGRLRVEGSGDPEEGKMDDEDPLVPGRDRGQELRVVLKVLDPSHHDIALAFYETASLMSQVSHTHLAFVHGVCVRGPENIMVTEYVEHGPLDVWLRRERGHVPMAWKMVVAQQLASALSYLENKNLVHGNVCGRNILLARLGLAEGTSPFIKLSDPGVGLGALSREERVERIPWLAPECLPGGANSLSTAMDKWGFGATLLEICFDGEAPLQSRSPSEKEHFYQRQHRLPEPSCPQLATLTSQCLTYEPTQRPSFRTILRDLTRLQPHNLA

IC50 (human JAK3) [nM]	IC50 (TYK2 JH2 domain) [nM]	IC50 (human JAK1) [nM]	IC50 (human JAK2) [nM]	SMILES
50 to 500	5 to 50	≥ 500	50 to 500	CCC(=O)c1cnc(Nc2cccc(CS(C)(=O)=O)n2)cc1Nc1cccc(-c2ncn(C)n2)c1OC [Compound 13N]
≥ 500	< 5	≥ 500	≥ 500	CCC(=O)c1cnc(Nc2ccc(C(N)C(F)(F)F)cn2)cc1Nc1cccc(-c2ncn(C)n2)c1OC (centres unmarked) [Compound 9CC]
≥ 500	< 5	≥ 500	≥ 500	CCC(=O)c1cnc(Nc2ccc(C(C)NC)cn2)cc1Nc1cccc(-c2ncn(C)n2)c1OC (centres unmarked) [Compound 9H]
≥ 500	5 to 50	≥ 500	≥ 500	CCC(=O)c1cnc(Nc2cnc(OCCN3CCC(F)(F)C3)cn2)cc1Nc1cccc(-c2ncn(C)n2)c1OC [Compound 18ZZ]
≥ 500	5 to 50	≥ 500	≥ 500	COc1c(Nc2cc(Nc3ccc(-c4cn(C)cn4)cn3)ncc2C(=O)C2CC2)cccc1-c1ncn(C)n1 [Compound 15K]
50 to 500	5 to 50	≥ 500	≥ 500	CCC(=O)c1cnc(Nc2ccc([C@@H](C)N3C[C@@H](O)[C@H](O)C3)cn2)cc1Nc1cccc(-c2ncn(C)n2)c1OC [Compound 9QQ]
≥ 500	5 to 50	≥ 500	≥ 500	CCC(=O)c1cnc(Nc2ccc(CN(C)C3CC3)cn2)cc1Nc1cccc(-c2ncn(C)n2)c1OC [Compound 9R]
≥ 500	< 5	≥ 500	≥ 500	CCC(=O)c1cnc(Nc2cnc(OCCN3CCCC3)cn2)cc1Nc1cccc(-c2ncn(C)n2)c1OC [Compound 18VV]
≥ 500	≥ 500	≥ 500	≥ 500	CCC(=O)c1cnc(NC(=O)[C@@H]2C[C@H]2NC(=O)OC(C)(C)C)cc1Nc1cccc(-c2ncn(C)n2)c1OC [Compound 22H]
≥ 500	< 5	≥ 500	≥ 500	CCO[C@H]1C[C@@H](n2nc(Nc3cc(Nc4cccc(-c5ncn(C)n5)c4OC)c(C(=O)CC)cn3)cc2C)C1 [Compound 21FF]
≥ 500	< 5	≥ 500	≥ 500	COc1c(Nc2cc(Nc3ccc(OCCO)cn3)ncc2C(=O)C2CC2)cccc1-c1ncn(C)n1 [Compound 18B]
≥ 500	< 5	≥ 500	≥ 500	CCC(=O)c1cnc(Nc2ccc(OC3CN(C)C3)cn2)cc1Nc1cccc(-c2ncn(C)n2)c1OC [Compound 18U]
≥ 500	< 5	≥ 500	≥ 500	CCC(=O)c1cnc(Nc2cc(CN(C)C)ncn2)cc1Nc1cccc(-c2ncn(C)n2)c1OC [Compound 17A, 1-(6-((6-((dimethylamino)methyl)pyrimidin-4-yl)amino)-4-((2-methoxy-3-(1-methyl-1H-1,2,4-triazol-3-yl)phenyl)amino)pyridin-3-yl)propan-1-one]
≥ 500	< 5	≥ 500	≥ 500	CCC(=O)c1cnc(Nc2ccc(CN(C)C)cn2)cc1Nc1cc(F)cc(-c2ncn(C)n2)c1OC [Compound 9E]
≥ 500	< 5	≥ 500	≥ 500	CCC(=O)c1cnc(Nc2cc(C)n([C@H]3C[C@@H](OC)C3)n2)cc1Nc1cccc(-c2ncn(C)n2)c1OC [Compound 21EE]
≥ 500	< 5	≥ 500	≥ 500	CCC(=O)c1cnc(Nc2ccc(-c3cn(C)cn3)cn2)cc1Nc1nccc(-c2ncn(C)n2)c1OC [Compound 15J]
≥ 500	< 5	≥ 500	≥ 500	CCC(=O)c1cnc(Nc2ccc(S(N)(=O)=O)cn2)cc1Nc1cccc(-c2ncn(C)n2)c1OC [Compound 13B]
≥ 500	5 to 50	≥ 500	≥ 500	CCC(=O)c1cnc(Nc2cnc(O[C@H]3CN(C)C[C@@H]3F)cn2)cc1Nc1cccc(-c2ncn(C)n2)c1OC [Compound 18AAA]
≥ 500	5 to 50	≥ 500	≥ 500	CCC(=O)c1cnc(Nc2ncc(CN3CCCC3)cc2F)cc1Nc1cccc(-c2ncn(C)n2)c1OC [Compound 9CCCC]
≥ 500	< 5	≥ 500	≥ 500	CCC(=O)c1cnc(Nc2ccc(CN3CCOCC3)cn2)cc1Nc1cccc(-c2ncn(C)n2)c1OC [Compound 9SS]

IC50 (human JAK3) [nM]	IC50 (TYK2 JH2 domain) [nM]	IC50 (human JAK1) [nM]	IC50 (human JAK2) [nM]	SMILES
≥ 500	5 to 50	≥ 500	≥ 500	CCC(=O)c1cnc(Nc2ccc(OC3CN(C)C3)nn2)cc1Nc1cccc(-c2ncn(C)n2)c1OC [Compound 18DDDD]
≥ 500	< 5	≥ 500	≥ 500	CCC(=O)c1cnc(Nc2cnc(CN3CCN(C)CC3)cn2)cc1Nc1cccc(-c2ncn(C)n2)c1OC [Compound 9BBBB]
≥ 500	5 to 50	≥ 500	≥ 500	CCC(=O)c1cnc(Nc2ccc(C(C)N)nn2)cc1Nc1cccc(-c2ncn(C)n2)c1OC (centres unmarked) [Compound 9III]
≥ 500	< 5	≥ 500	≥ 500	COc1c(Nc2cc(Nc3ccc(-n4ccnc4)cn3)ncc2C(=O)C2CC2)cccc1-c1ncn(C)n1 [Compound 15Q]
≥ 500	50 to 500	≥ 500	≥ 500	CCC(=O)c1cnc(Nc2nc(CN3CCCC3)ns2)cc1Nc1cccc(-c2ncn(C)n2)c1OC [Compound 21H]
≥ 500	< 5	≥ 500	≥ 500	CCC(=O)c1cnc(Nc2cnc(CN)cn2)cc1Nc1cccc(-c2ncn(C)n2)c1OC [Compound 9QQQ]
≥ 500	< 5	≥ 500	≥ 500	CCC(=O)c1cnc(Nc2cccc(CN3CCOCC3)n2)cc1Nc1cccc(-c2ncn(C)n2)c1OC [Compound 9HHHH]
≥ 500	< 5	≥ 500	≥ 500	CCC(=O)c1cnc(Nc2ccc(CN(C)C(C)C)cn2)cc1Nc1cccc(-c2ncn(C)n2)c1OC [Compound 9T]
≥ 500	< 5	≥ 500	≥ 500	CCC(=O)c1cnc(Nc2cc(C(=O)N(C)C)ncn2)cc1Nc1cccc(-c2ncn(C)n2)c1OC [Compound 8O]
≥ 500	5 to 50	≥ 500	≥ 500	CCC(=O)c1cnc(Nc2cnc(OCCN3CC(C#N)C3)cn2)cc1Nc1cccc(-c2ncn(C)n2)c1OC [Compound 18RR]
≥ 500	< 5	≥ 500	50 to 500	CCC(=O)c1cnc(Nc2ccc(C(NC)C(F)(F)F)cn2)cc1Nc1cccc(-c2ncn(C)n2)c1OC (centres unmarked) [Compound 9S]
≥ 500	5 to 50	≥ 500	≥ 500	CCC(=O)c1cnc(Nc2cc(C)n([C@H]3C[C@@H](O)C3)n2)cc1Nc1cccc(-c2ncn(C)n2)c1OC [Compound 21DD]
50 to 500	< 5	≥ 500	50 to 500	CCC(=O)c1cnc(Nc2cc(CN3CCCC3)n(C)n2)cc1Nc1cccc(-c2ncn(C)n2)c1OC [Compound 21G]
≥ 500	< 5	≥ 500	≥ 500	CCC(=O)c1cnc(Nc2ccc(CCN3CCCC3)cn2)cc1Nc1cccc(-c2ncn(C)n2)c1OC [Compound 11C]
≥ 500	5 to 50	≥ 500	≥ 500	CCC(=O)c1cnc(Nc2ccc(OC[C@H](O)CO)cn2)cc1Nc1cccc(-c2ncn(C)n2)c1OC [Compound 18G]
≥ 500	< 5	≥ 500	≥ 500	CCC(=O)c1cnc(Nc2ccc(S(=O)(=O)CC)cn2)cc1Nc1nccc(-c2ncn(C)n2)c1OC [Compound 13J]
≥ 500	5 to 50	≥ 500	≥ 500	CCC(=O)c1cnc(Nc2ccc(S(=O)(=O)NC)cn2)cc1Nc1cccc(-c2ncn(C)n2)c1OC [Compound 13C]
≥ 500	5 to 50	≥ 500	≥ 500	CCC(=O)c1cnc(Nc2ccn(-c3ccccc3)c(=O)n2)cc1Nc1nccc(-c2ncn(C)n2)c1OC [Compound 15S]
≥ 500	5 to 50	≥ 500	≥ 500	CCC(=O)c1cnc(Nc2ccnc(O[C@@H]3CCN(C)C3)n2)cc1Nc1cccc(-c2ncn(C)n2)c1OC [Compound 18LL]
≥ 500	< 5	≥ 500	≥ 500	CCC(=O)c1cnc(Nc2ccc(C(C)N(C)C)nn2)cc1Nc1cccc(-c2ncn(C)n2)c1OC (centres unmarked) [Compound 9KKK]

SMILES	IC50 (human JAK3) [nM]	IC50 (TYK2 JH2 domain) [nM]	IC50 (human JAK1) [nM]	IC50 (human JAK2) [nM]
CCC(=O)c1cnc(Nc2ccc(CN3C4COCC3C4)cn2)cc1Nc1cccc(-c2ncn(C)n2)c1OC [Compound 9XX]	50 to 500	< 5	≥ 500	50 to 500
